Structures are written as SMILES.

We go through 17 compounds from US6833372B2, “Non-peptide GnRH agents, Pharmaceutical compositions, and methods for their use” (Pfizer, Inc., priority 2002, dated 2004).

The target of one assay is T1, rat GnRH receptor (Rattus norvegicus, UniProt P30969).
T1 construct: or rat pituitaries (Pel Freez Biologicals, Rogers, Ark.) were homogenized; tissue Pel Freez Biologicals; host or cells: rat pituitaries (membrane preparation)
T1 sequence (P30969 1-327): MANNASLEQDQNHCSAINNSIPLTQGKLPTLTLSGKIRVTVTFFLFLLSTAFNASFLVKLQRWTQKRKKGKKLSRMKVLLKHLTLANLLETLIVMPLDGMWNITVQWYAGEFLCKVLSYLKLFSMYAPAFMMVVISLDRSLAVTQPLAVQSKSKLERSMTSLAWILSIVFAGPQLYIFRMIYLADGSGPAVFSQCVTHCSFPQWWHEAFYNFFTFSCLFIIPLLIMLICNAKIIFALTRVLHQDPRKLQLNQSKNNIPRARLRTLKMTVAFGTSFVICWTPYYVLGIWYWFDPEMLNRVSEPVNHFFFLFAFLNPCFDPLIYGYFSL
As to the kind of experiment: Radioligand binding: inhibition of 125I-GnRH-A binding to rat GnRH receptor (rat pituitary membranes). The conditions noted are these: read-out: Ki (nM), Inhibition Binding of 125I-GnRH-A to GnRH Receptors. As to the method:
(§1) HEK 293 cells containing mouse or human receptors, or rat pituitaries (Pel Freez Biologicals, Rogers, Ark.) were homogenized in buffer A containing: 50 mM Tris (pH 7.4), 0.32 M sucrose, 2 mM EGTA, 1 mM PMSF, 5 μg/ml aprotinen, 5 μg/ml Pepstatin A, and 1 μg/ml leupeptin. Homogenized cells were centrifuged at 4° C. at 20,000×g for 25 minutes, re-suspended in buffer A and re-centrifuged at 4° C. at 20,000×g for an additional 25 minutes. Total membrane protein was determined with a BCA kit (Pierce, Rockford, Ill.). Membranes were stored at −70° C. at a final membrane protein concentration of approximately 5 mg/ml.
(§2) The radioiodinated agonist analog of GnRH, [des-Gly^10,D-Ala^6]GnRH ethylamide (^125I-GnRH-A), was used as the radioligand. […] The reaction mixture was vortexed and incubated for 1 minute at room temperature. After one minute, the mixture was vortexed and allowed to incubate for an additional minute. 2 ml of 0.5 M acetic acid/1% BSA was added to the reaction tube and the mixture was added to a C18 Sep-Pak cartridge. The cartridge was washed with subsequent washes of 5 ml H2O and 5 ml 0.5 M acetic acid and then eluted with 5×1 ml of 60% CH3CN/40% 0.5 M acetic acid. The eluate was diluted with 3× volume of HPLC buffer A (0.1% TFA in H2O) and loaded onto a C18 column. The iodinated product was eluted over 20-25 min with a gradient of 25-100% CH3CN containing 0.1% TFA. The radioactive fractions (750 μl/fraction) were collected into clean polypropylene tubes containing 100 μl of 10% BSA. Fractions were assessed for biological activity by radioligand binding. Specific activity of the radioligand was approximately 2200 Ci/mmol.
(§3) Membranes were diluted to 0.01-0.5 mg/ml (depending upon the species of receptor) with assay buffer containing 50 mM HEPES (pH 7.4), 1 mM EDTA, 2.5 mM MgCl2, and 0.1% BSA. Membranes (diluted to utilize similar receptor numbers between assays) were incubated with approximately 0.04-0.06 nM ^125I-GnRH-A in the presence or absence of competing agents (0.1-10,000 nM) in a total volume of 200 μl in 96-well polypropylene plates for 1 hour at room temperature. Assays were stopped by rapid filtration onto 96-well GF/C filters soaked in 0.1% polyethylenimine (PEI) utilizing a Packard 96-well cell harvester. Filters were washed three times with ice-cold PBS (50 mM NaPO4, 0.9% NaCl, 2 mM MgCl2, and 0.02% NaN3, pH 7.4). 35 μl of scintillation cocktail was added to each filter well and filters were counted on a Packard Topcount. Control dose-response curves were generated to GnRH (0.1 nM-100 nM) in each competition binding experiment. Ki values were calculated from IC50 values according to Cheng et al., Biochemical Pharmacol. 22: 3099-3108, 1973. [formula]
As for `COc1nc(NCCCN2CCOCC2)nc(OC)c1NC(=O)c1ccc(Cc2c(C)cc(C)c3c2OCC3(C)C)o1` [Example H6, N-{4,6-Dimethoxy-2-[(3-morpholin-4-ylpropyl)amino]-pyrimidin-5-yl}-5-[(3,3,4,6-tetramethyl-2,3-dihydro-1-benzofuran-7-yl)methyl]-2-furamide], the Ki (as a rule, the dissociation constant of the complex between target and ligand, obtained from inhibition or displacement) was 12 nM. Same read-out and setting: to `COCCNc1nc(OC)c(NC(=O)c2ccc(Cc3cc4c(cc3C)C(C)(C)OC4(C)C)o2)c(OC)n1` [Example D74] belongs 1.1 nM.

The target in another assay is T2, human GnRH receptors (Homo sapiens, UniProt P30968).
T2 construct: expressed in transfected cells; host or cells: HEK 293 cells, stably transfected; membranes
T2 sequence (P30968 1-328): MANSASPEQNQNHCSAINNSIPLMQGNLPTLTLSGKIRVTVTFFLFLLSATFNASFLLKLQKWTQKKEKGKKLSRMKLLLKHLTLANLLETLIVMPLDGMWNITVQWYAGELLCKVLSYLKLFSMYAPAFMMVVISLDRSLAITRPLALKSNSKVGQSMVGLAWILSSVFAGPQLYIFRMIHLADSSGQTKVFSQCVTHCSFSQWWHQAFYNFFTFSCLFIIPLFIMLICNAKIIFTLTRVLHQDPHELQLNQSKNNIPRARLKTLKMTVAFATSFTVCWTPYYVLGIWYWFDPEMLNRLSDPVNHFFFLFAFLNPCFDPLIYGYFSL
As to the kind of experiment: Radioligand binding: inhibition of 125I-GnRH-A binding to human GnRH receptor membranes. As to conditions: HEK 293 cell membranes. The method, then:
HEK 293 cells stably transfected with mouse or human GnRH receptors as described above were grown in Dulbecco's high-glucose, modified Eagle's medium (DMEM) supplemented with 0.2% G418, 10% fetal bovine serum (FBS) and 100 U/mL penicillin/streptomycin. GH3 cells stably transfected with the rat GnRH receptor (GGH3) were provided by Dr. William Chin (Harvard Medical School, Boston, Mass.). These cells have been extensively characterized previously (Kaiser et al., 1997). The cells were grown in low glucose DMEM containing: 100U/mL penicillin/streptomycin, 0.6% G418 and 10% heat-inactivated FBS.
as §1, §2, §3
As to `COc1nc(NCCCN2CCOCC2)nc(OC)c1NC(=O)c1ccc(Cc2c(C)cc(C)c3c2OCC3(C)C)o1` [Example H6, N-{4,6-Dimethoxy-2-[(3-morpholin-4-ylpropyl)amino]-pyrimidin-5-yl}-5-[(3,3,4,6-tetramethyl-2,3-dihydro-1-benzofuran-7-yl)methyl]-2-furamide], the Ki worked out at 12 nM. Still for that read-out and setting: to `COCCNc1nc(OC)c(NC(=O)c2ccc(Cc3cc4c(cc3C)C(C)(C)OC4(C)C)o2)c(OC)n1` [Example D74] belongs 3 nM; to `COc1nc(N2CCN(c3ccc(Cl)cc3)CC2)nc(OC)c1NC(=O)c1ccc(Cc2cc3c(cc2C)C(C)(C)OC3(C)C)o1` [Example D62, N-{2-[4-(4-Chlorophenyl)piperazin-1-yl]-4,6-dimethoxypyrimidin-5-yl}-5-[(1,1,3,3,6-pentamethyl-1,3-dihydro-2-benzofuran-5-yl)methyl]-2-furamide], 120 nM; to `COc1nc(NCCc2ccncc2)nc(OC)c1NC(=O)c1ccc(Cc2cc3c(cc2C)C(C)(C)OC3(C)C)o1` [Example D66, N-{4,6-Dimethoxy-2-[(2-pyridin-4-ylethyl)amino]pyrimidin-5-yl}-5-[(1,1,3,3,6-pentamethyl-1,3-dihydro-2-benzofuran-5-yl)methyl]-2-furamide], 5.1 nM. On the same count and under the same terms, the value for `COc1cc(CNc2nc(OC)c(NC(=O)c3ccc(Cc4cc5c(cc4C)C(C)(C)OC5(C)C)o3)c(OC)n2)cc(OC)c1OC` [Example D34, N-{4,6-Dimethoxy-2-[(3,4,5-trimethoxybenzyl)amino]-pyrimidin-5-yl}-5-[(1,1,3,3,6-pentamethyl-1,3-dihydro-2-benzofuran-5-yl)methyl]-2-furamide] was 14 nM; that for `COc1nc(NCCc2ccccn2)nc(OC)c1NC(=O)c1ccc(Cc2cc3c(cc2C)C(C)(C)OC3(C)C)o1` [Example D65, N-{4,6-Dimethoxy-2-[(2-pyridin-2-ylethyl)amino]pyrimidin-5-yl}-5-[(1,1,3,3,6-pentamethyl-1,3-dihydro-2-benzofuran-5-yl)methyl]-2-furamide] was 6.7 nM; that for `CCCCN(CCC#N)c1nc(OC)c(NC(=O)c2ccc(Cc3cc4c(cc3C)C(C)(C)OC4(C)C)o2)c(OC)n1` [Example D37, N-{2-[Butyl(2-cyanoethyl)amino]-4,6-dimethoxypyrimidin-5-yl}-5-[(1,1,3,3,6-pentamethyl-1,3-dihydro-2-benzofuran-5-yl)methyl]-2-furamide] was 41 nM. Still for that read-out and setting: the value for `CCOC(=O)CN(Cc1ccccc1)c1nc(OC)c(NC(=O)c2ccc(Cc3cc4c(cc3C)C(C)(C)OC4(C)C)o2)c(OC)n1` [Example D51, Ethyl N-benzyl-N-[4,6-dimethoxy-5-({5-[(1,1,3,3,6-pentamethyl-1,3-dihydro-2-benzofuran-5-yl)methyl]-2-furoyl}amino)pyrimidin-2-yl]glycinate] was 202 nM; that for `COc1nc(NCCCN(C)C)nc(OC)c1NC(=O)c1ccc(Cc2c(C)cc3c(c2C)C(C)(C)CO3)o1` [Example H3, N-(2-{[3-(Dimethylamino)propyl]amino}-4,6-dimethoxypyrimidin-5-yl)-5-[(3,3,4,6-tetramethyl-2,3-dihydro-1-benzofuran-5-yl)methyl]-2-furamide] was 46 nM; that for `COc1nc(NCCNC2C3CC4CC(C3)CC2C4)nc(OC)c1NC(=O)c1ccc(Cc2cc3c(cc2C)C(C)(C)OC3(C)C)o1` (stereo not shown) [Example D35, N-(2-{[2-(2-Adamantylamino)ethyl]amino}-4,6-dimethoxypyrimidin-5-yl)-5-[(1,1,3,3,6-pentamethyl-1,3-dihydro-2-benzofuran-5-yl)methyl]-2-furamide] was 2.6 nM.

Compound `COc1nc(NCCCN2CCN(C)CC2)nc(OC)c1NC(=O)c1ccc(Cc2cc3c(cc2C)C(C)(C)OC3(C)C)o1` [Example D63, N-(4,6-Dimethoxy-2-{[3-(4-methylpiperazin-1-yl)propyl]amino}pyrimidin-5-yl)-5-[(1,1,3,3,6-pentamethyl-1,3-dihydro-2-benzofuran-5-yl)methyl]-2-furamide] had an inhibition constant (Ki) of 1.8 nM. As for `COc1nc(NCc2ccc(-c3ccccc3)cc2)nc(OC)c1NC(=O)c1ccc(Cc2cc3c(cc2C)C(C)(C)OC3(C)C)o1` [Example D55, N-{2-[(1,1′-Biphenyl-4-ylmethyl)amino]-4,6-dimethoxypyrimidin-5-yl}-5-[(1,1,3,3,6-pentamethyl-1,3-dihydro-2-benzofuran-5-yl)methyl]-2-furamide], the Ki worked out at 160 nM.

With `COc1nc(NCc2ccccc2Br)nc(OC)c1NC(=O)c1ccc(Cc2cc3c(cc2C)C(C)(C)OC3(C)C)o1` [Example D28, N-{2-[(2-Bromobenzyl)amino]-4,6-dimethoxypyrimidin-5-yl}-5-[(1,1,3,3,6-pentamethyl-1,3-dihydro-2-benzofuran-5-yl)methyl]-2-furamide], affinity was put at a Ki of 30 nM. Compound `COc1nc(N[C@@H]2CCC[C@H]2OCc2ccccc2)nc(OC)c1NC(=O)c1ccc(Cc2cc3c(cc2C)C(C)(C)OC3(C)C)o1` [Example D32, N-(2-{[(1R,2R)-2-(Benzyloxy)cyclopentyl]amino}-4,6-dimethoxypyrimidin-5-yl)-5-[(1,1,3,3,6-pentamethyl-1,3-dihydro-2-benzofuran-5-yl)methyl]-2-furamide] showed a Ki of 22 nM. Take `COc1nc(N2CCN(CC(=O)N(C)C)CC2)nc(OC)c1NC(=O)c1ccc(Cc2cc3c(cc2C)C(C)(C)OC3(C)C)o1` [Example D30, N-(2-{4-[2-(Dimethylamino)-2-oxoethyl]piperazin-1-yl}4,6-dimethoxypyrimidin-5-yl)-5-[(1,1,3,3,6-pentamethyl-1,3-dihydro-2-benzofuran-5-yl)methyl]-2-furamide]: affinity was put at a Ki of 46 nM.

Compound `COc1nc(NCCCN2CCOCC2)nc(OC)c1NC(=O)c1ccc(Cc2c(C)cc3c(c2C)C(C)(C)CO3)o1` [Example H1, N-{4,6-Dimethoxy-2-[(3-morpholin-4-ylpropyl)amino]-pyrimidin-5-yl}-5-[(3,3,4,6-tetramethyl-2,3-dihydro-1-benzofuran-5-yl)methyl]-2-furamide] had a Ki of 50 nM.

As to `COc1nc(NCc2ccc(C(F)(F)F)nc2)nc(OC)c1NC(=O)c1ccc(Cc2cc3c(cc2C)C(C)(C)OC3(C)C)o1` [Example D36, N-[4,6-Dimethoxy-2-({[6-(trifluoromethyl)pyridin-3-yl]-methyl}amino)pyrimidin-5-yl]-5-[(1,1,3,3,6-pentamethyl-1,3-dihydro-2-benzofuran-5-yl)methyl]-2-furamide], the affinity, expressed as Ki, was 87 nM.
